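Test compounds were applied to cells in 96-well plates for 48 hours at 5 doses. GI50 marks 50% less growth.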 Activity calls are given as the source filed them. No stated cut-off is given here; in the data, active = GI50 up to about 1.1 µM and inactive = higher.
Tests used:
Test in all cases: NCI-60 cell line screen, 48 h
MOLT-4 = test system: MOLT-4
NCI-H23 = test system: NCI-H23
HOP-62 = test system: HOP-62
786-0 = test system: 786-0
UO-31 = test system: UO-31
LXFL 529 = test system: LXFL 529
NCI-H522 = test system: NCI-H522
DMS-273 = test system: DMS-273
HCT-15 = test system: HCT-15
SN12C = test system: SN12C
K562 = test system: K562
DLD-1 = test system: DLD-1
HOP-92 = test system: HOP-92
TK-10 = test system: TK-10
ACHN = test system: ACHN
MDA-MB-231 = test system: MDA-MB-231
DU-145 = test system: DU-145
Hs-578T = test system: Hs-578T
T47D = test system: T47D
NCI/ADR-RES = test system: NCI/ADR-RES

SMILES | GI50 (MOLT-4) | GI50 (NCI-H23) | GI50 (HOP-62) | GI50 (786-0) | GI50 (UO-31) | GI50 (LXFL 529) | GI50 (NCI-H522) | GI50 (DMS-273) | GI50 (HCT-15) [µM] | GI50 (SN12C) | GI50 (K562) | GI50 (DLD-1) | GI50 (HOP-92) | GI50 (TK-10) | GI50 (ACHN) | GI50 (MDA-MB-231) | GI50 (DU-145) | GI50 (Hs-578T) | GI50 (T47D) | GI50 (NCI/ADR-RES)
O=C1c2c(c(-c3ccccc3)c(-c3ccccc3)c(-c3ccccc3)c2-c2ccccc2)C(=O)N1c1cccc(Br)c1 | > 100 µM (inactive) | > 100 µM (inactive) | > 100 µM (inactive) | > 100 µM (inactive) | > 100 µM (inactive) | > 100 µM (inactive) | > 100 µM (inactive) | > 100 µM (inactive) | > 100 | > 100 µM (inactive) | > 100 µM (inactive) | > 100 µM (inactive) | > 100 µM (inactive) | > 100 µM (inactive) | – | – | – | – | – | –
CC(C)(c1ccccc1)c1ccc(Oc2ccc3c(c2)-c2nc-3nc3[nH]c(nc4nc(nc5[nH]c(n2)c2ccc(Oc6ccc(C(C)(C)c7ccccc7)cc6)cc52)-c2cc(Oc5ccc(C(C)(C)c6ccccc6)cc5)ccc2-4)c2ccc(Oc4ccc(C(C)(C)c5ccccc5)cc4)cc32)cc1 | > 100 µM (inactive) | > 100 µM (inactive) | 64.6 µM (inactive) | > 100 µM (inactive) | > 100 µM (inactive) | > 100 µM (inactive) | 86.9 µM (inactive) | > 100 µM (inactive) | – | – | > 100 µM (inactive) | > 100 µM (inactive) | 17.8 µM (inactive) | 80.2 µM (inactive) | > 100 µM (inactive) | – | – | – | – | –
O=C(/C=C/c1ccccc1O)c1ccccc1Cl | 30.7 µM (inactive) | 21.1 µM (inactive) | 75.7 µM (inactive) | 92.5 µM (inactive) | 52.4 µM (inactive) | 30.5 µM (inactive) | 31.3 µM (inactive) | 40.2 µM (inactive) | 28.6 | 56.4 µM (inactive) | 23.4 µM (inactive) | 50.1 µM (inactive) | 28.8 µM (inactive) | 90.4 µM (inactive) | 51.5 µM (inactive) | – | – | – | – | –
COc1c2c(c(OC)c3c(=O)cc(C/C(=N/NC(=O)C[n+]4ccccc4)C(=O)Nc4cc(C)ccc4C)oc13)OCO2 | > 100 µM (inactive) | > 100 µM (inactive) | > 100 µM (inactive) | > 100 µM (inactive) | > 100 µM (inactive) | > 100 µM (inactive) | > 100 µM (inactive) | > 100 µM (inactive) | > 100 | > 100 µM (inactive) | > 100 µM (inactive) | > 100 µM (inactive) | > 100 µM (inactive) | > 100 µM (inactive) | > 100 µM (inactive) | – | – | – | – | –
CN(C)/N=C(/c1nc2ccc([N+](=O)[O-])cc2nc1O)C(O)c1ccco1 (centres undefined) | > 100 µM (inactive) | > 100 µM (inactive) | 72.1 µM (inactive) | > 100 µM (inactive) | 2.51 µM (inactive) | 58.1 µM (inactive) | 8.57 µM (inactive) | 91 µM (inactive) | 26.2 | > 100 µM (inactive) | > 100 µM (inactive) | 84.1 µM (inactive) | > 100 µM (inactive) | – | 35.4 µM (inactive) | – | – | – | – | –
CCCC(C)n1c(C)nc2c1C(=O)c1ccccc1C2=O (centres undefined) | 18.5 µM (inactive) | 15.6 µM (inactive) | 20 µM (inactive) | 19.9 µM (inactive) | 24.7 µM (inactive) | 12.7 µM (inactive) | 23.1 µM (inactive) | 7.24 µM (inactive) | 5.97 | 29.9 µM (inactive) | 8.57 µM (inactive) | 8.43 µM (inactive) | 16.7 µM (inactive) | 31 µM (inactive) | 27.8 µM (inactive) | – | – | – | – | –
COc1cc(OC)c2c(c1)C(=O)C(CC(C)O)=CC2=O (centres undefined) | 3.89 µM (inactive) | 19.7 µM (inactive) | 19.4 µM (inactive) | 16.2 µM (inactive) | 16.3 µM (inactive) | 13.2 µM (inactive) | 14.4 µM (inactive) | 16.6 µM (inactive) | 14.6 | 18.7 µM (inactive) | 14.9 µM (inactive) | 13.7 µM (inactive) | 11.1 µM (inactive) | 19.9 µM (inactive) | 16.6 µM (inactive) | – | – | – | – | –
COc1c(CC(C)=O)ccc2c1C(=O)c1ccc(C=O)c(OC(C)=O)c1C2=O | 11.4 µM (inactive) | > 10 µM (inactive) | – | 6.32 µM (inactive) | 20.4 µM (inactive) | 5.53 µM (inactive) | 2.15 µM (inactive) | 10.2 µM (inactive) | 5.57 | 12.9 µM (inactive) | 11.6 µM (inactive) | 3.62 µM (inactive) | 18.9 µM (inactive) | 27.5 µM (inactive) | 15.1 µM (inactive) | – | – | – | – | –
CCN1C(=O)C(=CN)C(=O)N(CC)C1=O | > 100 µM (inactive) | > 100 µM (inactive) | > 100 µM (inactive) | > 100 µM (inactive) | 58.2 µM (inactive) | > 100 µM (inactive) | > 100 µM (inactive) | > 100 µM (inactive) | > 100 | > 100 µM (inactive) | > 100 µM (inactive) | > 100 µM (inactive) | 38.8 µM (inactive) | 44.5 µM (inactive) | > 100 µM (inactive) | – | – | – | – | –
Clc1ccc(OCc2nnc3n2N=C(c2ccc(Br)cc2)CS3)cc1 | > 100 µM (inactive) | 40.9 µM (inactive) | 9.82 µM (inactive) | 16.4 µM (inactive) | 2.8 µM (inactive) | 15.2 µM (inactive) | 7.1 µM (inactive) | 29.8 µM (inactive) | 51.3 | 52.8 µM (inactive) | > 100 µM (inactive) | > 10 µM (inactive) | 11.2 µM (inactive) | 14.4 µM (inactive) | 23.2 µM (inactive) | – | – | – | – | –
CCOc1ccccc1NC(=O)C(C#N)C1=C(Cl)C(=O)c2ccccc2C1=O (centres undefined) | 1.17 µM (inactive) | 2.14 µM (inactive) | 6.04 µM (inactive) | 1.79 µM (inactive) | 1.73 µM (inactive) | 1.85 µM (inactive) | 2.09 µM (inactive) | 1.88 µM (inactive) | 1.47 | 1.79 µM (inactive) | 1.58 µM (inactive) | 1.85 µM (inactive) | 2.05 µM (inactive) | 2.22 µM (inactive) | 1.79 µM (inactive) | – | – | – | – | –
CCCCC(=O)OCC(=O)[C@]1(O)Cc2c(O)c3c(c(O)c2[C@@H](OC2CC(NC(=O)C(F)(F)F)C(O)C(C)O2)C1)C(=O)c1c(OC)cccc1C3=O (some centres undefined) | 0.0228 µM (active) | 0.351 µM (active) | 0.183 µM (active) | 0.232 µM (active) | 1.06 µM (active) | 0.743 µM (active) | 0.736 µM (active) | 0.138 µM (active) | 1.39 | 0.29 µM (active) | 0.337 µM (active) | 0.538 µM (active) | 0.376 µM (active) | 2.47 µM (inactive) | 0.406 µM (active) | 3 µM (inactive) | 0.365 µM (active) | 1.73 µM (inactive) | 0.54 µM (active) | –
CC1=C(N2CC2)C(=O)c2nc3n(c2C1=O)CCC3OC(=O)CCl (centres undefined) | 0.753 µM (active) | 0.0358 µM (active) | 0.0532 µM (active) | 0.052 µM (active) | 0.0483 µM (active) | 0.0776 µM (active) | 0.0274 µM (active) | 0.049 µM (active) | 0.0194 | 0.0573 µM (active) | 0.0618 µM (active) | 0.101 µM (active) | 3.3 µM (inactive) | 0.13 µM (active) | 0.047 µM (active) | 1.91 µM (inactive) | 0.021 µM (active) | 0.0279 µM (active) | 1.11 µM (active) | 0.0249 µM (active)
